Laboratory results from US10077261B2, “Imidazolin-5-one derivative useful as FASN inhibitors for the treatment of cancer” (Janssen Pharmaceutica NV, priority 2012, dated 2018).

Target: T1, hFASN enzyme (full length) (Homo sapiens, UniProt P49327)
T1 construct: 10 μL hFASN enzyme (full length, 300 ng, purified in house); made in house
Test: Fatty Acid Synthase (FASN) inhibition scintillation proximity assay
Format: biochemical
Details: for inhibition at 10 µM: read-out: Human FASN % inhibition @ 10 μM, 10 μM test compound; for IC50: read-out: Human FASN pIC50 (converted)
In short: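 Read-out relies on hydrophobic ³H-palmitate product, formed from ³H-acetyl-CoA and malonyl-CoA, binding streptavidin imaging beads, measured at 610±20 nm after at least 24 h. Full-length enzyme (300 ng) in phosphate buffer pH 7.5 with DTT; eight compound concentrations, 0.01–30 μM.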

T1 sequence (P49327 whole entry): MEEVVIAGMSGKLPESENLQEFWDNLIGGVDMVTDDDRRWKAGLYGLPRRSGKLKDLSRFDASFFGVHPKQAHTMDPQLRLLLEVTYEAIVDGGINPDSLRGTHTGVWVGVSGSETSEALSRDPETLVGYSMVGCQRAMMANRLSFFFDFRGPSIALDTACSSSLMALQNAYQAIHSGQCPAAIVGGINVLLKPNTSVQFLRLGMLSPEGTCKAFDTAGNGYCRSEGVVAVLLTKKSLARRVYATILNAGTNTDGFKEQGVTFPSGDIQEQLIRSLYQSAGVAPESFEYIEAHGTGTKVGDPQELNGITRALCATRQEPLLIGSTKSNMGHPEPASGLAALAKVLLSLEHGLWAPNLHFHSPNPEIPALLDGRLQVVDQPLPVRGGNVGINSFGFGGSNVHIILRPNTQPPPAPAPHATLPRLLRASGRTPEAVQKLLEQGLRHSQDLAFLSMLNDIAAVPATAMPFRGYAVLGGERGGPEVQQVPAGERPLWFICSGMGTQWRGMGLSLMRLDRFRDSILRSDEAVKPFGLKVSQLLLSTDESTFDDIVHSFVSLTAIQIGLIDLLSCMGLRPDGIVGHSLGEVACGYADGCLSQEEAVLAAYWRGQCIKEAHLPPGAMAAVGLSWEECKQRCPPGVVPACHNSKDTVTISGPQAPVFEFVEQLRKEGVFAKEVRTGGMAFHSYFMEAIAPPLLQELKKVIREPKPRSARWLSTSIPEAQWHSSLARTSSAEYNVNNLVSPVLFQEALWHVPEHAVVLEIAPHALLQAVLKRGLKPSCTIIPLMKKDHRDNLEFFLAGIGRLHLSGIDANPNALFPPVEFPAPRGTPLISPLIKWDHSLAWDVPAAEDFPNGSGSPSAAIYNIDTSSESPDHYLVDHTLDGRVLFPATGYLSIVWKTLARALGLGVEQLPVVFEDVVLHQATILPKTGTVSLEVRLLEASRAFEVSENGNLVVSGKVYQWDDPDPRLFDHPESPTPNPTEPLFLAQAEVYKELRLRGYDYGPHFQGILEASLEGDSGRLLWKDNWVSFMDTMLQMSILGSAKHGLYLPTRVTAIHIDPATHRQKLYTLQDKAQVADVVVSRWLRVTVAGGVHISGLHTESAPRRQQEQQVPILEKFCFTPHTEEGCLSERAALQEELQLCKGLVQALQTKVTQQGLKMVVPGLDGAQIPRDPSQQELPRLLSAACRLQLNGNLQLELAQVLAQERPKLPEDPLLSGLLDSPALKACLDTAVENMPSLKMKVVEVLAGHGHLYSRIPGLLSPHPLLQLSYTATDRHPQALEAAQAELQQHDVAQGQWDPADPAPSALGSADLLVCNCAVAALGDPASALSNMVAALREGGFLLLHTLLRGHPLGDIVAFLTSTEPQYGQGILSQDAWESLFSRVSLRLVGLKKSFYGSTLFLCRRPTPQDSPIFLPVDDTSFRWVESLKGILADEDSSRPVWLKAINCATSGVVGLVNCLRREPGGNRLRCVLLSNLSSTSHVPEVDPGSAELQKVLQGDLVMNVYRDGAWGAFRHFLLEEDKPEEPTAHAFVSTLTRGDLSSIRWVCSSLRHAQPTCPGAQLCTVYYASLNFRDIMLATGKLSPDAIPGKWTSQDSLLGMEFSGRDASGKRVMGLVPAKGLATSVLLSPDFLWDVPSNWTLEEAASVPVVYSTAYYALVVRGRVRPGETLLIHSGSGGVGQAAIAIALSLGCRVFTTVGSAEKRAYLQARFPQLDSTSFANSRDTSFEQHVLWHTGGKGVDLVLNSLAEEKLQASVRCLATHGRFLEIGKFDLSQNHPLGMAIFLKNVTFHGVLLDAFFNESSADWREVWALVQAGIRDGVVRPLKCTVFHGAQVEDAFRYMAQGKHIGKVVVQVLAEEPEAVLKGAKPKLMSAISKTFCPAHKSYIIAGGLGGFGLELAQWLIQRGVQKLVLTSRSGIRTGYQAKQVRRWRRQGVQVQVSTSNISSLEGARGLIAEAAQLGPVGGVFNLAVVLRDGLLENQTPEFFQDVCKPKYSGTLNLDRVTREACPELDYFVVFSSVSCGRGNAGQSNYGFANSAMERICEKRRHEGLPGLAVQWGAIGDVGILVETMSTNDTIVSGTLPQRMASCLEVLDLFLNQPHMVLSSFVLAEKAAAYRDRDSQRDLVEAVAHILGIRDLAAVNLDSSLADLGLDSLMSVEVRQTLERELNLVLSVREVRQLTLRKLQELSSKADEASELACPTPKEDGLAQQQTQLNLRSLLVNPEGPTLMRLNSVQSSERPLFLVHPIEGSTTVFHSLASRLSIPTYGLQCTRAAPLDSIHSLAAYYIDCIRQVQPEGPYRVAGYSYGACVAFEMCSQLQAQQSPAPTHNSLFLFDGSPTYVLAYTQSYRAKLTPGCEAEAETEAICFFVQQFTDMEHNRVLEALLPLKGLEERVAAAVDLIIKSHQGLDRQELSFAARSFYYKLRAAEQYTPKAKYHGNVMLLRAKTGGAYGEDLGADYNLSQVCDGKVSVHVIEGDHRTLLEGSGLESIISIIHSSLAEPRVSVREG

SMILES | inhibition at 10 µM [%] | IC50 [nM]
Cn1cc(-c2ccc(-c3ccc(C4=NC5(CCOC5)C(=O)N4CC4CN(C(=O)C5CC5)C4)cc3)cc2)cn1 (centres unmarked) [compound 710, 3-{[1-(Cyclopropylcarbonyl)azetidin-3-yl]methyl}-2-[4′-(1-methyl-1H-pyrazol-4-yl)biphenyl-4-yl]-7-oxa-1,3-diazaspiro[4.4]non-1-en-4-one] | 66 | 2820
Cc1cc(C2=NC3(CC3)C(=O)N2CC2CN(C(=O)C3CC3)C2)ccc1-c1ccc2oc(C#N)cc2c1 [compound 460, 5-[4-(6-{[1-(Cyclopropylcarbonyl)azetidin-3-yl]methyl}-7-oxo-4,6-diazaspiro[2.4]hept-4-en-5-yl)-2-methylphenyl]-1-benzofuran-2-carbonitrile] | 63 | 3090
O=C(C1CC1)N1CC[C@@H](CN2C(=O)C3(CC3)N=C2c2ccc(-c3ccc4[nH]ncc4c3)s2)C1 [compound 424, 6-{[(3R)-1-(Cyclopropylcarbonyl)pyrrolidin-3-yl]methyl}-5-[5-(1H-indazol-5-yl)thiophen-2-yl]-4,6-diazaspiro[2.4]hept-4-en-7-one] | 68 | 3980
COC(=O)N1CC2(C1)N=C(c1ccc(-c3ccc(-c4cnn(C)c4)cc3)cc1)N(C[C@@H]1CCN(C(=O)C(F)(F)F)C1)C2=O [compound 919, (R)-methyl 6-(4′-(1-methyl-1H-pyrazol-4-yl)-[1,1′-biphenyl]-4-yl)-8-oxo-7-((1-(2,2,2-trifluoroacetyl)pyrrolidin-3-yl)methyl)-2,5,7-triazaspiro[3.4]oct-5-ene-2-carboxylate] | 12 | > 10000
CC(O)C(=O)N1CC(CN2C(=O)C3(CCOCC3)N=C2c2ccc(-c3ccc4occc4c3)cc2)C1 (centres unmarked) [compound 703, 2-[4-(1-Benzofuran-5-yl)phenyl]-3-{[1-(2-hydroxypropanoyl)azetidin-3-yl]methyl}-8-oxa-1,3-diazaspiro[4.5]dec-1-en-4-one] | 61 | 4470
COCCN1CCC2(CC1)N=C(c1ccc(-c3ccc4[nH]ncc4c3)cc1)N(CC1CN(C(=O)C3CC3)C1)C2=O [compound 756] | 82 | 1580
CN1CCN(c2ccc(-c3ccc(C4=NC5(CCCC5)C(=O)N4C[C@@H]4CCN(C(=O)C5CC5)C4)cc3)cn2)CC1 [compound 44, 3-{[(3R)-1-(Cyclopropylcarbonyl)pyrrolidin-3-yl]methyl}-2-{4-[6-(4-methylpiperazin-1-yl)pyridin-3-yl]phenyl}-1,3-diazaspiro[4.4]non-1-en-4-one] | -0.97 | > 10000
CC(=O)N1CCC2(CC1)N=C(c1ccc(C3=CC4CCN(C(C)=O)CC4C=C3)cc1)N(C[C@@H]1CCN(C(=O)C3CC3)C1)C2=O (stereo partly drawn) [compound 161, 8-Acetyl-2-[4-(2-acetyl-1,2,3,4,4a,8a-hexahydroisoquinolin-6-yl)phenyl]-3-{[(3R)-1-(cyclopropylcarbonyl)pyrrolidin-3-yl]methyl}-1,3,8-triazaspiro[4.5]dec-1-en-4-one] | 16 | > 10000
Cc1cc2cc(-c3ccc(C4=NC5(CCN(C(=O)C(C)C)CC5)C(=O)N4C[C@@H]4CCN(C(=O)C5CC5)C4)cc3)ccc2o1 [compound 172, 3-{[(3R)-1-(Cyclopropylcarbonyl)pyrrolidin-3-yl]methyl}-2-[4-(2-methyl-1-benzofuran-5-yl)phenyl]-8-(2-methylpropanoyl)-1,3,8-triazaspiro[4.5]dec-1-en-4-one] | 108 | 251
COc1ccc(-c2ccc(C3=NC4(CC4)C(=O)N3CC3CCN(C(=O)C4CC4)CC3)cc2)cc1 [compound 99] | 61.4 | 4680
CS(=O)(=O)N1CC[C@@H](CN2C(=O)C3(CCOCC3)N=C2c2ccc(-c3ccc4occc4c3)cc2)C1 [compound 913, (S)-2-(4-(benzofuran-5-yl)phenyl)-3-((1-(methylsulfonyl)pyrrolidin-3-yl)methyl)-8-oxa-1,3-diazaspiro[4.5]dec-1-en-4-one] | 0.4 | > 10000
Cn1ncc2cc(-c3ccc(C4=NC5(CCOCC5)C(=O)N4CC4CN(C(=O)[C@H]5CCCO5)C4)cc3)ccc21 [compound 708, 2-[4-(1-Methyl-1H-indazol-5-yl)phenyl]-3-({1-[(2R)-tetrahydro-furan-2-ylcarbonyl]azetidin-3-yl}methyl)-8-oxa-1,3-diazaspiro[4.5]dec-1-en-4-one] | 76 | 1860
CC(=O)N1CCC2(CC1)N=C(c1ccc(-c3ccc4cnccc4c3)cc1)N(C[C@@H]1CCN(C(=O)C3CC3)C1)C2=O [compound 144, 8-Acetyl-3-{[(3R)-1-(cyclopropylcarbonyl)pyrrolidin-3-yl]methyl}-2-(4-isoquinolin-6-ylphenyl)-1,3,8-triazaspiro[4.5]dec-1-en-4-one] | 117 | 63.1
O=C(N1CC[C@@H](CN2C(=O)C3(CCOCC3)N=C2c2ccc(-c3ccc4occc4c3)cc2)C1)C(F)(F)F [compound 670, 2-[4-(1-Benzofuran-5-yl)phenyl]-3-{[(3R)-1-(trifluoroacetyl)pyrrolidin-3-yl]methyl}-8-oxa-1,3-diazaspiro[4.5]dec-1-en-4-one] | 56 | ~7590
Cn1cc(-c2ccc(-c3ccc(C4=NC5(CCOCC5)C(=O)N4C[C@@H]4CCN(C(=O)c5nccs5)C4)cc3)cc2)cn1 [compound 948, (R)-2-(4′-(1-methyl-1H-pyrazol-4-yl)-[1,1′-biphenyl]-4-yl)-3-((1-(thiazole-2-carbonyl)pyrrolidin-3-yl)methyl)-8-oxa-1,3-diazaspiro[4.5]dec-1-en-4-one] | 25 | > 10000
COC(=O)N1CC2(C1)N=C(c1ccc(-c3ccc4c(cnn4C)c3)cc1)N(C[C@@H]1CCN(C(=O)C(C)O)C1)C2=O (stereo partly drawn) [compound 738, Methyl 7-{[(3R)-1-(2-hydroxypropanoyl)pyrrolidin-3-yl]methyl}-6-[4-(1-methyl-1H-indazol-5-yl)phenyl]-8-oxo-2,5,7-triazaspiro[3.4]oct-5-ene-2-carboxylate] | 80 | 1910
COc1cc(-c2ccc3occc3c2)ccc1C1=NC2(CCCC2)C(=O)N1C[C@@H]1CCN(C(=O)C2CC2)C1 [compound 156, 2-[4-(1-Benzofuran-5-yl)-2-methoxyphenyl]-3-{[(3R)-1-(cyclopropylcarbonyl)pyrrolidin-3-yl]methyl}-1,3-diazaspiro[4.4]non-1-en-4-one] | 108 | 191
Cc1cc2cc(-c3ccc(C4=NC5(CC5)C(=O)N4CC4CN(C(=O)C5CC5)C4)cc3F)ccc2o1 [compound 416, 6-{[1-(Cyclopropylcarbonyl)azetidin-3-yl]methyl}-5-[3-fluoro-4-(2-methyl-1-benzofuran-5-yl)phenyl]-4,6-diazaspiro[2.4]hept-4-en-7-one] | 76 | ~1780
CC(C)n1cc2cc(-c3ccc(C4=NC5(CC5)C(=O)N4C[C@@H]4CCN(C(=O)C5CC5)C4)cc3)ccc2n1 [compound 811, (R)-6-((1-(cyclopropanecarbonyl)pyrrolidin-3-yl)methyl)-5-(4-(2-isopropyl-2H-indazol-5-yl)phenyl)-4,6-diazaspiro[2.4]hept-4-en-7-one] | 35 | > 10000
CS(=O)(=O)Nc1cccc(-c2ccc(C3=NC4(CCCC4)C(=O)N3C[C@@H]3CCN(C(=O)C4CC4)C3)cc2)c1 [compound 84, N-[4′-(3-{(3R)-1-(Cyclopropylcarbonyl)pyrrolidin-3-yl]methyl}-4-oxo-1,3-diazaspiro[4.4non-1-en-2-yl)biphenyl-3-yl]methanesulfonamide] | 89.2 | 1000
Cn1cc(-c2ccc(-c3ccc(C4=NC5(CCOCC5)C(=O)N4C[C@@H]4CCN(C(=O)N5CCCC5)C4)cc3)cc2)cn1 [compound 660, 2-[4′-(1-Methyl-1H-pyrazol-4-yl)biphenyl-4-yl]-3-{[(3S)-1-(pyrrolidin-1-ylcarbonyl)pyrrolidin-3-yl]methyl}-8-oxa-1,3-diazaspiro[4.5]dec-1-en-4-one] | 76 | 2240
O=C(C1CC1)N1CC(CN2C(=O)C3(CC3)N=C2c2ccc(-c3ccc4c(cnn4CC4CC4)c3)cc2)C1 [compound 804, 6-((1-(cyclopropanecarbonyl)azetidin-3-yl)methyl)-5-(4-(1-(cyclopropylmethyl)-1H-indazol-5-yl)phenyl)-4,6-diazaspiro[2.4]hept-4-en-7-one] | 41 | > 10000
Cn1cc(-c2ccc(C3=NC4(CC4)C(=O)N3CC3CN(C(=O)C4CC4)C3)cc2)cn1 [compound 42, 6-{[1-(Cyclopropylcarbonyl)azetidin-3-yl]methyl}-5-[4-(1-methyl-1H-pyrazol-4-yl)phenyl]-4,6-diazaspiro[2.4]hept-4-en-7-one] | 23.5 | > 10000
CC(C)C(=O)N1CCC2(CC1)N=C(c1ccc(-c3ccc4occc4c3)cc1)N(CC1CN(C(=O)C3CC3)C1)C2=O [compound 129, 2-[4-(1-Benzofuran-5-yl)phenyl]-3-{[1-(cyclopropylcarbonyl)azetidin-3-yl]methyl}-8-(2-methylpropanoyl)-1,3,8-triazaspiro[4.5]dec-1-en-4-one] | 90.7 | 1170
O=C(C1CC1)N1CC[C@@H](CN2C(=O)C3(CC3)N=C2c2cnc(-c3ccc4occc4c3)cn2)C1 [compound 439, 5-[5-(1-Benzofuran-5-yl)pyrazin-2-yl]-6-{[(3R)-1-(cyclopropylcarbonyl)pyrrolidin-3-yl]methyl}-4,6-diazaspiro[2.4]hept-4-en-7-one] | 48 | 9550
